Measurements: US10738035B2, “Hepatitis B antiviral agents” (Enanta Pharmaceuticals, Inc., priority 2015, dated 2020)
pEC50: −log10 of the molar value.

Tests used:
[1] = Compound toxicity, ATPLite (CC50); conditions: human, HepAD38 cells
Experimental: (§1) Briefly, cells are passaged upon attaining confluency in DMEM/F12 media in the presence of 10% FBS, Penn/Strep, 250 μg/mL G418, and 1 μg/ml tetracycline. Novel compounds are screened by first washing cells three times with PBS to remove tetracycline, and plating in 96 well plates at 35,000 cells/well. Compounds dissolved in DMSO are then diluted 1:200 into wells containing cells. Five days after compound addition, material is harvested for analysis.
Compound toxicity is evaluated by seeding cells at 15,000 cells/well and treating with compound as described above.

[2] = test system: hepatitis B virus (HBV); test: HepAD38 antiviral assay (viral product accumulation, EC50); conditions: HePAD38, 120 h, read-out: HepAD38 EC50
Experimental: as §1
On harvest day, virion DNA is obtained by lysing with Sidestep Lysis and Stabilization Buffer and then quantified via quantitative real time PCR. Commercially available ELISA kits are used to quantitate the viral proteins HBsAg (Alpco) or HbeAg (US Biological) by following the manufacturer's recommended protocol after diluting samples to match the linear range of their respective assays.

| SMILES | CC50 at 3 days [1] [µM] | pEC50 [2] |
| --- | --- | --- |
| O=C(Nc1cc(F)c(F)c(F)c1)c1ccc(Cl)c(NC(=O)N2CCC(O)CC2)c1 [Example 7] | > 30 | 5.00 to 6.00 |
| Cn1nc(NS(=O)(=O)C2CCC(O)CC2)cc1C(=O)Nc1cc(F)c(F)c(F)c1 (centres unmarked) [Example 5] | > 30 | > 6.00 |
| Cn1c(NC(=O)N2CCC(O)CC2)cnc1C(=O)Nc1cc(F)c(F)c(F)c1 [Example 6] | > 10 | < 5.00 |
| COC(=O)c1ccc(NC(=O)c2cc(NC(=O)N3CCC(O)CC3)nn2C)cc1 [Example 72] | > 30 | < 5.00 |
| CC(C)N(C)C(=O)Nc1cc(C(=O)Nc2cc(F)c(F)c(F)c2)n(C)n1 [Example 57] | < 10 | 5.00 to 6.00 |
| Cn1nc(NC(=O)N2CCC(O)CC2)cc1C(=O)Nc1ccc(-c2ccccc2)cc1 [Example 70] | > 30 | < 5.00 |
| Cn1nc(NC(=O)N2CCC(O)CC2)cc1C(=O)Nc1ccc(C(=O)O)cc1 [Example 74] | > 30 | < 5.00 |
| Cn1nc(NC(=O)N2CCC(O)CC2)cc1C(=O)Nc1cc(F)c(F)c(F)c1 [Example 3] | > 30 | > 6.00 |
| Cn1nc(NC(=O)N2CCC(O)CC2)cc1C(=O)Nc1cc(F)cc(F)c1 [Example 46] | 10 to 30 | < 5.00 |
| Cn1nc(NC(=O)N(CCO)CCO)cc1C(=O)Nc1cc(F)c(F)c(F)c1 [Example 27] | > 30 | < 5.00 |
| CCCN(C)C(=O)Nc1cc(C(=O)Nc2cc(F)c(F)c(F)c2)n(C)n1 [Example 30] | > 30 | > 6.00 |
| Cc1cc(NC(=O)c2cc(NC(=O)N3CCC(O)CC3)nn2C)ccc1F [Example 54] | < 10 | > 6.00 |
| Cn1nc(NC(=O)N2CCC(O)CC2)cc1C(=O)Nc1ccccn1 [Example 61] | > 30 | < 5.00 |
| CCCCNC(=O)Nc1cc(C(=O)Nc2cc(F)c(F)c(F)c2)n(C)n1 [Example 31] | > 30 | 5.00 to 6.00 |
| CC(C)c1ccc(NC(=O)c2cc(NC(=O)N3CCC(O)CC3)nn2C)cc1 [Example 67] | > 30 | < 5.00 |
| Cn1nc(NC(=O)N2CCC(O)CC2)cc1C(=O)Nc1cc(F)c(Cl)c(F)c1 [Example 36] | > 30 | < 5.00 |
| Cn1cc(NC(=O)N2CCC(O)CC2)nc1C(=O)Nc1cc(F)c(F)c(F)c1 [Example 10] | > 30 | < 5.00 |
| O=C(Nc1cc(F)c(F)c(F)c1)c1cc(NC(=O)N2CCC(O)CC2)no1 [Example 9] | < 10 | < 5.00 |
| COCCNC(=O)Nc1cc(C(=O)Nc2cc(F)c(F)c(F)c2)n(C)n1 [Example 24] | > 30 | 5.00 to 6.00 |
| Cn1nc(NC(=O)N2CCC(O)CC2)cc1C(=O)Nc1ccc(F)c(C(F)(F)F)c1 [Example 52] | > 30 | 5.00 to 6.00 |
| CN(C(=O)N1CCC(O)CC1)c1cc(C(=O)Nc2cc(F)c(F)c(F)c2)n(C)n1 [Example 58] | > 30 | < 5.00 |
| CN(CCCO)C(=O)Nc1cc(C(=O)Nc2cc(F)c(F)c(F)c2)n(C)n1 [Example 39] | > 30 | 5.00 to 6.00 |
| Cn1nc(NC(=O)NCC2(C)CC2)cc1C(=O)Nc1cc(F)c(F)c(F)c1 [Example 26] | > 30 | > 6.00 |

| SMILES | CC50 at 3 days [1] [µM] | pEC50 [2] |
| --- | --- | --- |
| Cn1nc(NC(=O)N2CCC(O)CC2)cc1C(=O)Nc1ccc(O)c(F)c1 [Example 35] | > 30 | < 5.00 |
| O=C(Nc1cc(F)c(F)c(F)c1)c1ccc(Cl)c(NS(=O)(=O)N2CCC(O)CC2)c1 [Example 71] | > 30 | 5.00 to 6.00 |
| Cn1nc(NC(=O)NCCS(C)(=O)=O)cc1C(=O)Nc1cc(F)c(F)c(F)c1 [Example 42] | > 30 | 5.00 to 6.00 |
| Cn1nc(NC(=O)N2CCC(O)CC2)cc1C(=O)Nc1ccc(Cl)c(F)c1 [Example 49] | > 30 | 5.00 to 6.00 |
| Cn1nc(NC(=O)N2CC(O)C2)cc1C(=O)Nc1cc(F)c(F)c(F)c1 [Example 38] | 10 to 30 | > 6.00 |
| CN(Cc1ccccc1)C(=O)Nc1cc(C(=O)Nc2cc(F)c(F)c(F)c2)n(C)n1 [Example 23] | < 10 | 5.00 to 6.00 |
| Cn1nc(NC(=O)N2CCC(O)CC2)cc1C(=O)Nc1cc(F)c(F)c(Cl)c1 [Example 60] | < 10 | 5.00 to 6.00 |
| Cn1nc(NC(=O)N2CCC(O)CC2)cc1C(=O)Nc1ccc(F)cc1 [Example 34] | > 30 | 5.00 to 6.00 |
| Cn1nc(NC(=O)N2CCC(O)C2)cc1C(=O)Nc1cc(F)c(F)c(F)c1 (centres unmarked) [Example 29] | < 10 | 5.00 to 6.00 |
| CCc1ccc(NC(=O)c2cc(NC(=O)N3CCC(O)CC3)nn2C)cc1 [Example 66] | > 30 | < 5.00 |
| Cn1nc(NC(=O)C2CCC(O)CC2)cc1C(=O)Nc1cc(F)c(F)c(F)c1 (centres unmarked) [Example 14] | > 30 | 5.00 to 6.00 |
| Cn1nc(NC(=O)N2CCC(O)CC2)cc1C(=O)Nc1cccc(F)c1F [Example 45] | > 30 | 5.00 to 6.00 |
| Cn1nc(NC(=O)N2CCC(O)CC2)cc1C(=O)Nc1ccc(F)c(O)c1 [Example 50] | > 30 | < 5.00 |
| Cn1nc(NC(=O)N2CCC(O)CC2)cc1C(=O)Nc1ccc(O)cc1 [Example 62] | > 30 | < 5.00 |
| Cn1nc(NC(=O)N2CCC(O)CC2)cc1C(=O)Nc1ccc(F)cc1Cl [Example 59] | > 30 | < 5.00 |
| CN(C(=O)Nc1cc(C(=O)Nc2cc(F)c(F)c(F)c2)n(C)n1)C1CC1 [Example 22] | > 30 | < 5.00 |
| Cn1nc(NC(=O)OCCO)cc1C(=O)Nc1cc(F)c(F)c(F)c1 [Example 15] | > 30 | > 6.00 |
| Cn1nc(C(=O)Nc2cc(F)c(F)c(F)c2)cc1NC(=O)N1CCC(O)CC1 [Example 13] | > 10 | < 5.00 |
| CCN(C)C(=O)Nc1cc(C(=O)Nc2cc(F)c(F)c(F)c2)n(C)n1 [Example 40] | < 10 | 5.00 to 6.00 |
| CC(C)CN(C)C(=O)Nc1cc(C(=O)Nc2cc(F)c(F)c(F)c2)n(C)n1 [Example 41] | > 30 | > 6.00 |
| O=S(=O)(c1cc2oc(Nc3cc(F)c(F)c(F)c3)nc2cc1Cl)N1CCC(O)CC1 [Example 4] | < 10 | 5.00 to 6.00 |
| Cn1nc(NC(=O)N2CCC(O)CC2)cc1C(=O)Nc1ccccc1 [Example 51] | > 30 | < 5.00 |
| Cn1nc(NC(=O)N2CCOCC2)cc1C(=O)Nc1cc(F)c(F)c(F)c1 [Example 20] | > 30 | 5.00 to 6.00 |
